# Where two headings read alike, the source gives them in different places.
# Legend:
# [1] = system: human umbilical vein endothelial cells (HUVEC); test: Impedimetric measurement (xCELLigence SP), delta slope, HUVEC; details: for delta slope (DS), short-term / delta slope (DS), long-term: HUVEC, three parallels; for delta slope (DS), short-term: 0–2 h; for delta slope (DS), long-term: 0–72 h
# From the text: (§1) The main objective of the study reported here was to evaluate the in vitro cardiotoxic effects (as undesired side effects) of […] GnRH-III-based conjugates containing doxorubicin, daunorubicin and methotrexate on two essential target cells of cardiovascular diseases: vascular endothelial cells and cardiomyocytes. The rate of cytotoxicity (antitumor effect) vs cardiotoxicity (toxic effects on cardiomyocytes and vascular endothelium) is an important factor for efficient drug development for targeted tumor therapy with minimized side effects. The technique used in this work – impedimetry – is a dedicated one for real-time monitoring of cells to distinguish short-term (0–2 hours) and long-term (0–72 hours) effects elicited by the drug or carrier–drug conjugates. The basic theory of impedimetry is that proliferation/viability of cells is well detectable by monitoring of the electric impedance (Z) in an AC environment, due to the electric insulator character of intact surface membranes composed of the phospholipid bilayer. […] While cell physiological responses of short-term exposures result in characteristic changes of cell morphology (e.g., spreading), long-term effects characteristically influence in particular the proliferation of cells, and therefore the cytotoxic effects. The presented dimensionless values of delta slope (DS) measure the difference between the slope of the curve corresponding to the treatment and that of the control curve in impedimetric recordings, the negative signs refer to the relative values to the identical control.
# (§2) Experimental part – Cellular samples
# (§3) In the present study, GnRH conjugates containing anti-tumour drugs (e.g., daunorubicin, doxorubicin) were investigated in order to evaluate whether the conjugates exert a decrease cardiotoxic effect compared to that of the free drugs. The cardiac myocytes and the vascular endothelium cells are the most frequently detected target cells of antitumor compounds and they are employed in our study. Human umbilical vein endothelial cells (HUVEC; Promocell, Biomedica, Wien, Austria) were cultured in Endothelial Cell Growth Medium with Endothelial Cell Growth Supplement Mix (Promocell, Biomedica, Wien, Austria) and 100 µg/mL penicillin/streptomycin. Primary human cardiac myocytes (HCM; Promocell, Biomedica, Wien, Austria) were cultured in Myocyte Growth Medium (Promocell, Biomedica, Wien, Austria).
# (§4) Impedimetric measurements
# (§5) The xCELLigence SP system was used for impedimetric measurements. The bottom of the wells of a 96-well E-plate is installed with a golden electrode array that constitutes the adhesion surface. Adhering cells – acting as insulators – change the electric impedance measured on the electrodes. The measured impedance change is in direct correlation with the number of adhering cells and the extent of adhesion. The results of impedance change are given in the form of Cell Index (CI) calculated by the xCELLigence system according to the […]
# (§6) where Zt is the measured impedance in a time point, Zb is the background impedance and F is an inbuilt factor (F = 15 at 10 kHz) depending on the frequency of the alternating current. The measurements took place in an incubator holding a 37 °C temperature and 5% carbon-dioxide […]
# (§7) The experiments started with a measurement of baseline impedance for 1 hour. After that, the cells (10^4 cells/well) were added to the wells and allowed to adhere to the electrodes. When the adhering cells reached a balanced state in the wells, signified by the impedance curves […]
# (§8) free drugs at 10−12 – 10−6 M and the conjugates at 10−8 – 10−6 M final concentrations were […]
# (§9) added to the wells. The changes in impedance were measured for at least 72 hours. For each measurement three parallels were measured.
# (§10) The evaluation of responses followed the previously described strategy: acute effects of compounds were evaluated as a characteristic morphology of the curves in the 0–2 hours
# [2] = system: primary human cardiac myocytes (HCM); details: for delta slope (DS), short-term / delta slope (DS), long-term: HCM, three parallels; for delta slope (DS), short-term: 0–2 h; for delta slope (DS), long-term: 0–72 h
# From the text: as §1, §2, §3, §4, §5, §6, §7, §8, §9, §10
# [3] = system: HT-29 human colon adenocarcinoma cells; details: MTT assay; cited from earlier work
# From the text: (§11) Table 1 Comparative study of cytotoxic effects and cardiotoxicity elicited by GnRH-based antitumor compounds (1–15) and reference substances (AN-152, Dox, Dau, Mtx). IC50 values show antitumor cytotoxic characteristics of the conjugates in human breast cancer (MCF-7), human colorectal adenocarcinoma (HT-29) and human acute monocytic leukemia (MM6) derived cell lines as representative tumor cells.
# [4] = system: MCF-7 human breast adenocarcinoma cells; details: MTT assay; cited from earlier work
# From the text: as §11
# [5] = system: human acute monocytic leukemia (MonoMac6) cells; details: cited from earlier work
# From the text: as §11
# [6] = grade +++/++/+/0, key not given, summary of impedimetric cytotoxicity
Substance,"delta slope (DS), short-term ([1]; Table S2a, 10^-6 mol/L)","delta slope (DS), short-term ([1]; Table S2a, 10^-7 mol/L)","delta slope (DS), short-term ([1]; Table S2a, 10^-8 mol/L)","delta slope (DS), long-term ([1]; Table S2a, 10^-8 mol/L)","delta slope (DS), short-term ([2]; Table S2b, 10^-6 mol/L)","delta slope (DS), short-term ([2]; Table S2b, 10^-7 mol/L)","delta slope (DS), short-term ([2]; Table S2b, 10^-8 mol/L)","delta slope (DS), long-term ([2]; Table S2b, 10^-6 mol/L)","delta slope (DS), long-term ([2]; Table S2b, 10^-7 mol/L)","delta slope (DS), long-term ([2]; Table S2b, 10^-8 mol/L)",IC50 [3] [µM],IC50 [4] [µM],IC50 [5] [µM],"delta slope (DS), long-term ([1]; Table S2a, 10^-7 mol/L)",further results
GnRH-III(Dox-glut-GFLG) [conjugate 2],0.058,0.016,-0.004,-0.002,0.008,0.003,0.009,−0.019,−0.004,0.001,> 100,> 100,0.089 ± 0.02,,"delta slope (DS), long-term ([1]; Table S2a, 10^-6 mol/L, listed as 2): -0.042; delta slope (DS), long-term ([1]; Table S2a, 10^-6 mol/L, listed as GnRH-III(Dox-glut-GFLG)): −0.042; delta slope (DS), long-term ([1]; Table S2a, 10^-7 mol/L, listed as 2): -0.017; delta slope (DS), long-term ([1]; Table S2a, 10^-7 mol/L, listed as GnRH-III(Dox-glut-GFLG)): −0.017"
GnRH-III(Dox=Aoa-GFLG) [conjugate 3],-0.006,-0.003,-0.002,0.0004,-0.002,0.001,0.004,−0.007,-0.001,0.002,46.1 ± 6.1,5.4 ± 1.9,0.43 ± 0.04,-0.001,"delta slope (DS), long-term ([1]; Table S2a, 10^-6 mol/L, listed as 3): -0.009; delta slope (DS), long-term ([1]; Table S2a, 10^-6 mol/L, listed as GnRH-III(Dox=Aoa-GFLG)): −0.009"
GnRH-III(Dox-O-glut) [conjugate 1],0.038,0.016,-0.011,-0.003,0.012,0.002,0.001,−0.025,,−0.002,2.4 ± 0.2,0.1 ± 0.1,0.039 ± 0.01,,"delta slope (DS), long-term ([1]; Table S2a, 10^-6 mol/L, listed as 1): -0.054; delta slope (DS), long-term ([1]; Table S2a, 10^-6 mol/L, listed as GnRH-III(Dox-O-glut)): −0.054; delta slope (DS), long-term ([1]; Table S2a, 10^-7 mol/L, listed as 1): -0.028; delta slope (DS), long-term ([1]; Table S2a, 10^-7 mol/L, listed as GnRH-III(Dox-O-glut)): −0.028"
GnRH-III(Mtx-K(Dau=Aoa)) [conjugate 13],,,,,,,,,,,5.6 ± 3,5.4 ± 0.7,1.41 ± 0.39,,"delta slope (DS), short-term ([1]; Table S5a, 10^-6 mol/L): 0.013; delta slope (DS), short-term ([1]; Table S5a, 10^-7 mol/L): 0.002; delta slope (DS), short-term ([1]; Table S5a, 10^-8 mol/L): 0.001; delta slope (DS), long-term ([1]; Table S5a, 10^-6 mol/L): 0.001; delta slope (DS), long-term ([1]; Table S5a, 10^-7 mol/L): 0.001; delta slope (DS), long-term ([1]; Table S5a, 10^-8 mol/L): -0.001; Cardiotoxicity, HUVEC [1, 6]: 0; cytotoxic effect on HUVEC, result in words ([1]; long-term (0–72 h), 10^−8–10^−6 mol/L, impedimetry, one-way ANOVA): no significant effect was detected; delta slope (DS), short-term ([2]; Table S5b, 10^-6 mol/L): -0.003; delta slope (DS), short-term ([2]; Table S5b, 10^-7 mol/L): 0.002; delta slope (DS), short-term ([2]; Table S5b, 10^-8 mol/L): -0.002; delta slope (DS), long-term ([2]; Table S5b, 10^-6 mol/L): -0.001; delta slope (DS), long-term ([2]; Table S5b, 10^-7 mol/L): -0.001; delta slope (DS), long-term ([2]; Table S5b, 10^-8 mol/L): -0.001; Cardiotoxicity, HCM [2, 6]: 0; cytotoxic effect on HCM, result in words ([2]; long-term (0–72 h), 10^−8–10^−6 mol/L (free drugs 10^−12–10^−6 mol/L), impedimetry, one-way ANOVA): none of the two investigated mixed drug–GnRH-III conjugates (13 and 15) exerted any significant cytotoxic effect"
"Glp-His-Trp-Ser-Tyr-D-Lys(Dox-O-glut)-Leu-Arg-Pro-Gly-NH2 [AN-152, reference compound]",0.031,0.014,-0.004,-0.005,0.008,-0.001,0.001,−0.023,−0.008,-0.001,1.9 ± 0.3,0.2 ± 0.1,0.035 ± 0.01,−0.029,"delta slope (DS), long-term ([1]; Table S2a, 10^-6 mol/L): −0.051; delta slope (DS), long-term ([1]; Table S2a, 10^-6 mol/L, listed as An-152): -0.051; delta slope (DS), long-term ([1]; Table S2a, 10^-7 mol/L, listed as An-152): -0.029; delta slope (DS), long-term ([2]; Table S2b, 10^-6 mol/L, listed as An-152): -0.023; delta slope (DS), long-term ([2]; Table S2b, 10^-7 mol/L, listed as An-152): -0.008"
